From ChEMBL document CHEMBL1131947, “Syntheses and biological activities of bis(3-indolyl)thiazoles, analogues of marine bis(indole)alkaloid nortopsentins” (1999)

Key:
Format in all cases: functional
NCI-H23 = experiment: In vitro growth inhibitory activity against human NCI-H23 cancer cell line
SF-295 = experiment: In vitro growth inhibitory activity against human SF-295 cancer cell line
MOLT-4 = experiment: In vitro growth inhibitory activity against human MOLT-4 cancer cell line
HCT-15 = experiment: In vitro growth inhibitory activity against human HCT-15 cancer cell line
MCF7 = experiment: In vitro growth inhibitory activity against human MCF-7 cancer cell line
MDA-N = experiment: In vitro growth inhibitory activity against human MDA-N cancer MDA-N cell line
SR = experiment: In vitro growth inhibitory activity against human SR cancer cell line
K562 = experiment: In vitro growth inhibitory activity against human K-562 cancer cell line

SMILES | GI50 (NCI-H23) [µM] | GI50 (SF-295) [µM] | GI50 (MOLT-4) [µM] | GI50 (HCT-15) [µM] | GI50 (MCF7) [µM] | GI50 (MDA-N) [µM] | GI50 (SR) [µM] | GI50 (K562) [µM]
Brc1ccc2c(-c3csc(-c4c[nH]c5cc(Br)ccc45)n3)c[nH]c2c1 | 14.1 | 4.81 | 5.8 | 8.5 | 6.46 | 2.94 | 3.4 | 4.69
Brc1ccc2c(-c3csc(-c4c[nH]c5ccccc45)n3)c[nH]c2c1 | 14.5 | 14.6 | 19.9 | 15.2 | 16.7 | 19.2 | 6.36 | 18.8
Brc1ccc2c(-c3nc(-c4c[nH]c5ccccc45)cs3)c[nH]c2c1 | 25.8 | 9.23 | 31.2 | 17.8 | 27.2 | 31.5 | 12.2 | 5.61
c1ccc2c(-c3csc(-c4c[nH]c5ccccc45)n3)c[nH]c2c1 | > 100 | 33.6 | 5.31 | > 100 | > 100 | 83 | 1.77 | 3.27
